Measurements reported in PubChem BioAssay AID2060494 (Molecular Pharmacology Branch, DTP, NCI, 2025).

Tested on: 435261-313-R-J1-PDC complex spheroid viability
Experiment: Anticancer human tumor 435261-313-R-J1-PDC patient-derived colon adenocarcinoma cell line growth inhibition [GQUAD]
Details: for IC50: curve of first compound; for viability, T/C: stronger effect = lower value; active = viability on the fitted dose curve at most 10% of control; inactive = the rest
Method in brief: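 Viability of tumor cells grown as complex spheroids with endothelial and stromal cells, exposed to drug combinations. Top concentration at or near clinical Cmax (else 10 microM), diluted in half-log increments.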

[1] = second compound 0.0316 µM, first compound 0.0316 µM
[2] = second compound 0.0316 µM, first compound 0.316 µM
[3] = second compound 0.1 µM, first compound 0.0316 µM
[4] = second compound 0.1 µM, first compound 0.316 µM
[5] = second compound 0.316 µM, first compound 0.0316 µM
[6] = second compound 0.316 µM, first compound 0.316 µM
[7] = second compound 1 µM, first compound 0.0316 µM
[8] = second compound 1 µM, first compound 0.316 µM
[9] = second compound 3.16 µM, first compound 0.0316 µM
[10] = second compound 3.16 µM, first compound 0.316 µM
[11] = second compound 10 µM, first compound 0.0316 µM
[12] = second compound 10 µM, first compound 0.316 µM
[13] = second compound 0.0316 µM, first compound 0.000999 µM
[14] = second compound 0.0316 µM, first compound 0.00316 µM
[15] = second compound 0.0316 µM, first compound 0.00999 µM
[16] = second compound 0.0316 µM, first compound 0.0999 µM
[17] = second compound 0.1 µM, first compound 0.000999 µM
[18] = second compound 0.1 µM, first compound 0.00316 µM
[19] = second compound 0.1 µM, first compound 0.00999 µM
[20] = second compound 0.1 µM, first compound 0.0999 µM
[21] = second compound 0.316 µM, first compound 0.000999 µM
[22] = second compound 0.316 µM, first compound 0.00316 µM
[23] = second compound 0.316 µM, first compound 0.00999 µM
[24] = second compound 0.316 µM, first compound 0.0999 µM
[25] = second compound 1 µM, first compound 0.000999 µM
[26] = second compound 1 µM, first compound 0.00316 µM
[27] = second compound 1 µM, first compound 0.00999 µM
[28] = second compound 1 µM, first compound 0.0999 µM
[29] = second compound 3.16 µM, first compound 0.000999 µM
[30] = second compound 3.16 µM, first compound 0.00316 µM
[31] = second compound 3.16 µM, first compound 0.00999 µM
[32] = second compound 3.16 µM, first compound 0.0999 µM
[33] = second compound 10 µM, first compound 0.000999 µM
[34] = second compound 10 µM, first compound 0.00316 µM
[35] = second compound 10 µM, first compound 0.00999 µM
[36] = second compound 10 µM, first compound 0.0999 µM
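Note: spheroids exposed to the agents for seven days before readout.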
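Throughout, for viability, T/C: percent of vehicle control viability with DMSO wells as 100%.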

C=CC(=O)N1CCN(c2nc(=O)n(-c3c(C)ccnc3C(C)C)c3nc(-c4c(O)cccc4F)c(F)cc23)C(C)C1 (stereo not drawn) + Cc1[nH]c2ccc(F)cc2c1-c1nc2c3cccnc3c3ncccc3c2[nH]1
> 10000 nM: IC50 (second compound 0.0316 µM) | IC50 (second compound 0.1 µM) | IC50 (second compound 0.316 µM) | IC50 (second compound 1 µM)
inactive: viability, T/C [1] 98.7% | viability, T/C (second compound 0.0316 µM, first compound 0.1 µM) 69.3% | viability, T/C [2] 116% | viability, T/C (second compound 0.0316 µM, first compound 1 µM) 126% | viability, T/C (second compound 0.0316 µM, first compound 3.16 µM) 127% | viability, T/C (second compound 0.0316 µM, first compound 10 µM) 83.8% | viability, T/C [3] 85% | viability, T/C (second compound 0.1 µM, first compound 0.1 µM) 131% | viability, T/C [4] 92.8% | viability, T/C (second compound 0.1 µM, first compound 1 µM) 109% | viability, T/C (second compound 0.1 µM, first compound 3.16 µM) 129% | viability, T/C (second compound 0.1 µM, first compound 10 µM) 97.8% | viability, T/C [5] 97.6% | viability, T/C (second compound 0.316 µM, first compound 0.1 µM) 106% | viability, T/C [6] 88.7% | viability, T/C (second compound 0.316 µM, first compound 1 µM) 73.9% | viability, T/C (second compound 0.316 µM, first compound 3.16 µM) 122% | viability, T/C (second compound 0.316 µM, first compound 10 µM) 104% | viability, T/C [7] 78.4% | viability, T/C (second compound 1 µM, first compound 0.1 µM) 84% | viability, T/C [8] 74.2% | viability, T/C (second compound 1 µM, first compound 1 µM) 71.2% | viability, T/C (second compound 1 µM, first compound 3.16 µM) 61% | viability, T/C (second compound 1 µM, first compound 10 µM) 80.4% | viability, T/C [9] 41.5% | viability, T/C (second compound 3.16 µM, first compound 0.1 µM) 27.6% | viability, T/C [10] 28.1% | viability, T/C (second compound 3.16 µM, first compound 1 µM) 42.5% | viability, T/C (second compound 3.16 µM, first compound 3.16 µM) 54.2% | viability, T/C (second compound 3.16 µM, first compound 10 µM) 32% | viability, T/C [11] 22.4% | viability, T/C (second compound 10 µM, first compound 0.1 µM) 24.8% | viability, T/C [12] 24.8% | viability, T/C (second compound 10 µM, first compound 1 µM) 16.2% | viability, T/C (second compound 10 µM, first compound 3.16 µM) 28.3% | viability, T/C (second compound 10 µM, first compound 10 µM) 22.4%
< 31.6 nM: IC50 (second compound 3.16 µM) | IC50 (second compound 10 µM)

CC[C@@]1(O)C(=O)OCc2c1cc1n(c2=O)Cc2cc3c(CN(C)C)c(O)ccc3nc2-1 + Cc1[nH]c2ccc(F)cc2c1-c1nc2c3cccnc3c3ncccc3c2[nH]1
> 316 nM: IC50 (second compound 0.0316 µM) | IC50 (second compound 0.1 µM) | IC50 (second compound 0.316 µM) | IC50 (second compound 1 µM)
inactive: viability, T/C [13] 90.1% | viability, T/C [14] 76.8% | viability, T/C [15] 84.8% | viability, T/C [1] 74.6% | viability, T/C [16] 72.9% | viability, T/C [2] 69% | viability, T/C [17] 106% | viability, T/C [18] 74.9% | viability, T/C [19] 108% | viability, T/C [3] 73.6% | viability, T/C [20] 72.8% | viability, T/C [4] 59.8% | viability, T/C [21] 89.3% | viability, T/C [22] 80% | viability, T/C [23] 114% | viability, T/C [5] 59.3% | viability, T/C [24] 58.7% | viability, T/C [6] 52.6% | viability, T/C [25] 41.9% | viability, T/C [26] 67.6% | viability, T/C [27] 67.9% | viability, T/C [7] 64.5% | viability, T/C [28] 54.2% | viability, T/C [8] 47.1% | viability, T/C [29] 41.4% | viability, T/C [30] 34.2% | viability, T/C [31] 37.4% | viability, T/C [9] 28.2% | viability, T/C [32] 23.9% | viability, T/C [10] 33.8% | viability, T/C [33] 19.3% | viability, T/C [34] 25.4% | viability, T/C [35] 18.3% | viability, T/C [11] 24.9% | viability, T/C [36] 20.7% | viability, T/C [12] 17.9%
< 0.999 nM: IC50 (second compound 3.16 µM) | IC50 (second compound 10 µM)

CCc1c2c(nc3ccc(O)cc13)-c1cc3c(c(=O)n1C2)COC(=O)[C@]3(O)CC + Cc1[nH]c2ccc(F)cc2c1-c1nc2c3cccnc3c3ncccc3c2[nH]1
23.8 nM: IC50 (second compound 0.316 µM)
23.2 nM: IC50 (second compound 0.1 µM)
21.2 nM: IC50 (second compound 0.0316 µM)
inactive: viability, T/C [13] 119% | viability, T/C [14] 62.1% | viability, T/C [15] 67% | viability, T/C [1] 46.7% | viability, T/C [16] 51.3% | viability, T/C [2] 33.8% | viability, T/C [17] 93.9% | viability, T/C [18] 64.4% | viability, T/C [19] 58.5% | viability, T/C [3] 49.4% | viability, T/C [20] 46.5% | viability, T/C [4] 33.9% | viability, T/C [21] 53.6% | viability, T/C [22] 51.5% | viability, T/C [23] 53.2% | viability, T/C [5] 49.1% | viability, T/C [24] 31.8% | viability, T/C [6] 29.7% | viability, T/C [25] 45.6% | viability, T/C [26] 55.6% | viability, T/C [27] 32.9% | viability, T/C [7] 34% | viability, T/C [28] 33.1% | viability, T/C [8] 23.8% | viability, T/C [29] 32.8% | viability, T/C [30] 30.6% | viability, T/C [31] 35.4% | viability, T/C [9] 24% | viability, T/C [32] 20.1% | viability, T/C [10] 21.2% | viability, T/C [33] 22.2% | viability, T/C [34] 18.8% | viability, T/C [35] 25.3% | viability, T/C [11] 16.7% | viability, T/C [36] 16.1% | viability, T/C [12] 17.3%
< 0.999 nM: IC50 (second compound 1 µM) | IC50 (second compound 3.16 µM) | IC50 (second compound 10 µM)

Cn1ncnc1[C@H]1c2n[nH]c(=O)c3cc(F)cc(c23)N[C@@H]1c1ccc(F)cc1 + Cc1[nH]c2ccc(F)cc2c1-c1nc2c3cccnc3c3ncccc3c2[nH]1
inactive: viability, T/C [13] 125% | viability, T/C [14] 95.4% | viability, T/C [15] 87.6% | viability, T/C [1] 77.8% | viability, T/C [16] 93.9% | viability, T/C [2] 87% | viability, T/C [17] 79.2% | viability, T/C [18] 83.9% | viability, T/C [19] 114% | viability, T/C [3] 101% | viability, T/C [20] 99.5% | viability, T/C [4] 80.9% | viability, T/C [21] 86.9% | viability, T/C [22] 110% | viability, T/C [23] 92.1% | viability, T/C [5] 71.7% | viability, T/C [24] 82.9% | viability, T/C [6] 68.5% | viability, T/C [25] 60.2% | viability, T/C [26] 67.9% | viability, T/C [27] 94.8% | viability, T/C [7] 72.2% | viability, T/C [28] 60.3% | viability, T/C [8] 56.2% | viability, T/C [29] 43.7% | viability, T/C [30] 37.5% | viability, T/C [31] 25.6% | viability, T/C [9] 38.6% | viability, T/C [32] 31.8% | viability, T/C [10] 41.7% | viability, T/C [33] 18.4% | viability, T/C [34] 32.4% | viability, T/C [35] 31.2% | viability, T/C [11] 22.7% | viability, T/C [36] 22.6% | viability, T/C [12] 22.1%
> 316 nM: IC50 (second compound 0.0316 µM) | IC50 (second compound 0.1 µM) | IC50 (second compound 0.316 µM) | IC50 (second compound 1 µM)
< 0.999 nM: IC50 (second compound 3.16 µM) | IC50 (second compound 10 µM)
